Laboratory results from ChEMBL document CHEMBL5543100 (Eur J Med Chem, 2024).

Test system: OS-RC-2
Assay: cells
Details: Homo sapiens, OS-RC-2, 48 h
Description: Antiproliferative activity against human OS-RC-2 cells assessed as inhibition of cell growth incubated for 48 hrs

CNC(=O)c1cc(Oc2ccc(NC(=O)Nc3ccc(Cl)c(C(F)(F)F)c3)cc2)ccn1 [SORAFENIB]
IC50: ~9 µM
